Some test systems named below: HS 578T breast; K-562 leukemia; SK-OV-3 ovarian; BT-549 breast; MDA-MB-435; HOP-92 NSCLC; M14 melanoma; UACC-257 melanoma; A498 renal; NCI-H23 lung.
Holding throughout (test): inhibition of tumour cell growth, NCI panel, 48 h

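Growth conditions: 96-well plates. Treatment: test compound, 48 hours, 5 concentrations. Analysis: linear interpolation between bracketing concentrations; unreached endpoints set to highest concentration. GI50 = concentration required for 50% inhibition of growth. Definition used: TGI = concentration required for complete inhibition of growth.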 A value given as a limit tells only on which side of the number the result lay.

Take `C=C(CN(C)C)C(=O)c1ccc(Oc2ccccc2)cc1`: the TGI was 21.7 µM in the assay with HS 578T breast; 12.5 µM in the assay with K-562 leukemia; 47.9 µM in the assay with SK-OV-3 ovarian; 12.9 µM in the assay with BT-549 breast; 10.3 µM with MDA-MB-435; above 25.5 µM in the assay with HOP-92 NSCLC. Besides, the TGI turned out to be 4.02 µM in the assay on M14 melanoma, 17.7 µM with UACC-257 melanoma, 42.1 µM in the assay on A498 renal and 24.9 µM with NCI-H23 lung.

Turning to `CN1CCN(CC(=O)N2c3cccc4cccc(c34)N(C(=O)CN3CCN(C)CC3)C2c2cn(-c3ccccc3)nc2-c2cccc([N+](=O)[O-])c2)CC1`, the GI50 is 1.95 µM with HS 578T breast; 1.22 µM in the assay with K-562 leukemia; 2.11 µM in the assay on SK-OV-3 ovarian; 1.67 µM in the assay with BT-549 breast; 1.98 µM in the assay with MDA-MB-435; 1.13 µM with HOP-92 NSCLC. In addition, the GI50 in the assay on M14 melanoma was 1.75 µM; in the assay on UACC-257 melanoma it was 1.86 µM; with A498 renal, 1.92 µM; in the assay on NCI-H23 lung, 2.13 µM. In addition, the TGI in the assay with HS 578T breast is 5.71 µM; in the assay with K-562 leukemia it was 3.81 µM; in the assay with SK-OV-3 ovarian, 4.6 µM; in the assay on BT-549 breast it was 3.26 µM; in the assay on MDA-MB-435, 3.93 µM; with HOP-92 NSCLC, 3.18 µM. The TGI with M14 melanoma is 3.34 µM; with UACC-257 melanoma it was 3.69 µM; in the assay on A498 renal, 3.95 µM; with NCI-H23 lung it was 5.45 µM.

As for `O=S(=O)(Nc1ccccn1)c1ccc(N=Nc2ccc(O)c3ncccc23)cc1`, the GI50 in the assay on HS 578T breast is 1.06 µM; in the assay with K-562 leukemia it was 0.734 µM; in the assay with SK-OV-3 ovarian, 1.7 µM; in the assay with BT-549 breast it was 1.25 µM; in the assay with MDA-MB-435 it was 0.638 µM; in the assay on HOP-92 NSCLC, 1.21 µM. Further, the GI50 is 1.21 µM in the assay with M14 melanoma, 1.39 µM with UACC-257 melanoma, 1.77 µM in the assay with A498 renal and 2.34 µM with NCI-H23 lung. For the same compound, the TGI in the assay with HS 578T breast was 8.86 µM; with K-562 leukemia it was above 37.7 µM; in the assay with SK-OV-3 ovarian it was 6.59 µM; in the assay on BT-549 breast, 7.04 µM; with MDA-MB-435 it was 8.41 µM; in the assay with HOP-92 NSCLC, 5.34 µM. Further, the TGI is 5.55 µM in the assay with M14 melanoma, 8.02 µM in the assay on UACC-257 melanoma, 5.73 µM with A498 renal and 16 µM with NCI-H23 lung.

Consider `Cc1nn(C)c2cc(N(C)c3ccnc(Nc4cccc(S(N)(=O)=O)c4)n3)ccc12`, for which the GI50 with HS 578T breast was 7.26 µM; in the assay on K-562 leukemia, 2.13 µM; in the assay on SK-OV-3 ovarian, above 11.8 µM; with BT-549 breast, 8.69 µM; in the assay with MDA-MB-435, 6.12 µM; with HOP-92 NSCLC, 4.39 µM. In addition, the GI50 in the assay on M14 melanoma is 8.11 µM; in the assay on UACC-257 melanoma, 6.54 µM; in the assay on A498 renal, 5.27 µM; in the assay with NCI-H23 lung it was 6.6 µM. Besides, the TGI with HS 578T breast is above 25 µM; in the assay on K-562 leukemia, above 25 µM; in the assay on SK-OV-3 ovarian, above 25 µM; in the assay on BT-549 breast it was above 23.5 µM; in the assay on MDA-MB-435, above 25 µM; with HOP-92 NSCLC, above 25 µM. For the same compound, the TGI in the assay with M14 melanoma was above 25 µM; in the assay with UACC-257 melanoma it was above 25 µM; with A498 renal, 17.5 µM; with NCI-H23 lung, above 25 µM.

As to `Oc1c(CN2CCN(c3ccccc3F)CC2)cc(Br)c2cccnc12`, the GI50 is 1.82 µM in the assay with HS 578T breast; 0.366 µM in the assay on K-562 leukemia; 1.45 µM in the assay on SK-OV-3 ovarian; 2.02 µM in the assay with BT-549 breast; 1.31 µM in the assay with MDA-MB-435; 0.896 µM in the assay on HOP-92 NSCLC. In addition, the GI50 was 0.924 µM with M14 melanoma, 2.06 µM in the assay on UACC-257 melanoma, 0.695 µM with A498 renal and 1.33 µM in the assay on NCI-H23 lung. Moreover, the TGI in the assay with HS 578T breast is 55.5 µM; in the assay with K-562 leukemia, 19.6 µM; in the assay with SK-OV-3 ovarian it was 27.9 µM; in the assay on BT-549 breast it was above 100 µM; in the assay with MDA-MB-435 it was above 100 µM; in the assay on HOP-92 NSCLC, 19.8 µM. Further, the TGI in the assay on M14 melanoma came out at 16.5 µM; with UACC-257 melanoma, 24.1 µM; with A498 renal, 9.23 µM; in the assay with NCI-H23 lung, 25.2 µM.

Turning to `Nc1ccc(-c2ccc(-c3nc4cc(Cl)c(Cl)cc4[nH]3)cc2)cc1`, the GI50 in the assay on HS 578T breast is 12 µM; in the assay with K-562 leukemia it was 4.32 µM; in the assay with SK-OV-3 ovarian it was above 79.9 µM; in the assay on BT-549 breast it was 27.4 µM; with MDA-MB-435, 0.199 µM; in the assay on HOP-92 NSCLC it was 23 µM. Further, the GI50 with M14 melanoma was 0.0456 µM; with UACC-257 melanoma it was 1.38 µM; with A498 renal, 18 µM; in the assay on NCI-H23 lung it was 20.1 µM. Moreover, the TGI with HS 578T breast was 82.1 µM; in the assay on K-562 leukemia it was above 100 µM; in the assay with SK-OV-3 ovarian, above 100 µM; in the assay on BT-549 breast it was above 100 µM; in the assay on MDA-MB-435, above 84.7 µM; in the assay on HOP-92 NSCLC it was 65 µM. The TGI in the assay with M14 melanoma is above 37.1 µM; in the assay with UACC-257 melanoma, above 60.7 µM; with A498 renal it was above 70.7 µM; in the assay with NCI-H23 lung, above 100 µM.

These data come from PubChem BioAssay (NCI).
